{"source": "paper PMC7448270", "about": "“Channeling C1 Metabolism toward S-Adenosylmethionine-Dependent Conversion of Estrogens to Androgens in Estrogen-Degrading Bacteria” (mBio, 2020)", "tested_on": "T1, estradiol/estrogen methyltransferase (EMT; EmtABCD)", "T1 construct": "gene emtA; native, not purified; cell-free extract of estradiol-grown cells; assignment to emtABCD by proteogenomics; with Estrogen methyltransferase component EmtC; Estrogen methyltransferase component EmtD (oxidoreductase-like, putative reductive cofactor regeneration)", "test": "UPLC assay of methylation by cell-free extract, Michaelis-Menten", "type": "biochemical, Denitratisoma oestradiolicum", "settings": "SAM methyl donor, Ti(III)-citrate, MgCl2, HEPES/KOH pH 8.0, 30°C, anaerobic; crude soluble extract, enzyme not purified"}
{"smiles": "C[C@]12CC[C@@H]3c4ccc(O)cc4CC[C@H]3[C@@H]1CC[C@@H]2O", "note": "[17β-estradiol]", "values": [{"measurement": "Km", "result": "35 ± 4", "unit": "µM"}]}
{"smiles": "C[C@]12CC[C@@H]3c4ccc(O)cc4CC[C@H]3[C@@H]1CCC2=O", "note": "[estrone]", "values": [{"measurement": "Km", "result": "14 ± 3", "unit": "µM"}]}
